# Several values for one entry are separate records, joined by “and”; a condition that tells them apart may be missing. Identical values can stand only once.
# Experiments:
# MDS mouse model = experiment: MDS mouse model, combination of KanAS, ATRA and 5-azacytidine, survival; type: in vivo; conditions: MDS mice, individual mouse; alive = still alive on 24 Mar. 2010
# Method: The MDS mouse model described in Omidvar et al. (2007, Cancer Res. 67:11657-67) was used to study the effect of the combination of KanAS, ATRA and 5-azacytidine on MDS.
# 100 microliters of 1 mg/ml solution of 5-Azacytidine was injected IP to the mice on the day of diagnosis and then on Mondays, Wednesdays and Fridays until death of the mice.
# ATRA was administered through a 10 mg 21 day release pellet
# The vaccination protocol was as follows: 100 micrograms of DNA (VVACS02 or pVax14 or pVaxKanAS) were administered […] diagnosis (day 0), which corresponded to the day on which the peripheral blood platelet count fell below normal (<10^5/microliter). On day 20 and on day 40, 2×50 micrograms of DNA were injected again.
# The mice were randomly divided into four groups after twelve 5-azacytidine injections: • 5-Azacytidine (n=5) • 5-azacytidine+ATRA (n=4) • 5-azacytidine+VVACS02 DNA (n=4) • 5-azacytidine+ATRA+VVACS02 DNA (n=4)
# APL cells = experiment: APL mouse model survival, Kaplan-Meier, mice followed for two years; type: in vivo, FVB/N mice; conditions: Kaplan-Meier survival curves
# Method: The effect of different DNA constructs on an APL mouse model was studied using the protocol disclosed in Padua et al. (2003, Nature Medicine 9:1413-1417). Briefly, 10^4 APL cells were injected to FVB/N mice. Then an ATRA pellet, which releases 5 mg/day of ATRA for 21 days, was introduced behind the neck of the mice with a trochar. DNA (2×50 micrograms of plasmid) was injected the day after introducing the ATRA pellet, and every 20 days for a total of three injections. The following DNA constructs were injected to the mice: • the pVaxKanAS construct, also referred to as pVax14; • the pCDNA3PML-RARαFrC construct (VVACS01); • the pVaxPML-RARαFrC construct; and • the pCDNA3PML-RARαASFrC construct (VVACS04).
# A pellet purchased from the manufacturer of the ATRA pellet (Innovative Research, Sarasota, USA) was used as a placebo.
# The mice were followed for two years and Kaplan-Meier curves were constructed.
# The results are shown on FIG. 2 and in Table 1 herebelow. The log-rank (Mantel-Cox) and general Wilcoxon tests were applied to the Kaplan-Meier curves. Both statistical tests led to identical conclusions in terms of significance.
Structure (SMILES),Days alive from treatment (MDS mouse model),general Wilcoxon Chi-2 value (APL cells; V.S. placebo),general Wilcoxon significance (p bound) (APL cells; V.S. placebo),log-rank (Mantel-Cox) Chi-2 value (APL cells; V.S. placebo),log-rank (Mantel-Cox) significance (p bound) (APL cells; V.S. placebo),general Wilcoxon Chi-2 value (APL cells; V.S. placebo + DNA),general Wilcoxon significance (p bound) (APL cells; V.S. placebo + DNA),log-rank (Mantel-Cox) Chi-2 value (APL cells; V.S. placebo + DNA),log-rank (Mantel-Cox) significance (p bound) (APL cells; V.S. placebo + DNA)
Nc1ncn([C@@H]2O[C@H](CO)[C@@H](O)[C@H]2O)c(=O)n1 [5-azacytidine],33 days and Alive on 24 Mar. 2010 (112 days) and 72 days and Alive on 24 Mar. 2010 (75 days) and 37 days,,,,,,,,
"CC1=C(/C=C/C(C)=C/C=C/C(C)=C/C(=O)O)C(C)(C)CCC1 [ATRA, all-trans retinoic acid]",,5.1827E+01,p < 0.0001,6.0018E+01,p < 0.0001,1.6318E+01,p < 0.0001,8.7059E+00,p < 0.005
